{
  "source": "patent US11999794B2",
  "about": "“Human mesothelin chimeric antigen receptors and uses thereof” (Novartis AG, priority 2013, dated 2024)",
  "key": {"[1]": {"tested_on": "A/H1N1 strain A/New Jersey/8/76 and A/H3N2 strain A/Victoria/361/11", "parameters": "species or system human", "conditions": "in vivo"}, "[2]": {"experiment": "RAD001 levels in blood (trough)"}, "[3]": {"tested_on": "H1N1 A/California/07/2009, H3N2 A/Victoria/210/2009, B/Brisbane/60/2008", "experiment": "Serologic response to 2012 seasonal influenza vaccine (HI GMT ratio, primary endpoint)", "type": "in vivo, human", "conditions": "for primary endpoint (≥1.2-fold GMT increase relative to placebo in 2 of 3 strains): ITT population", "experimental": "From December 2011 to April 2012, 218 elderly volunteers were enrolled in a randomized, observer-blind, placebo-controlled trial. The subjects were randomized to treatment arms using a validated automated randomization system with a ratio of RAD001 to placebo of 5:2 in each treatment arm. The treatment arms were: • RAD001 0.5 mg daily or placebo • RAD001 5 mg weekly or placebo • RAD001 20 mg weekly or placebo\n(§1) The trial was observer-blind because the placebo in the RAD001 0.5 mg daily and 20 mg weekly cohorts differed slightly from the RAD001 tablets in those cohorts. […] The treatment duration for all cohorts was 6 weeks during which time subjects underwent safety evaluations in the clinic every 2 weeks. After subjects had been dosed for 4 weeks, RAD001 steady state levels were measured pre-dose and at one hour post dose. After completing the 6 week course of study drug, subjects were given a 2 week drug free break to reverse any possible RAD001-induced immunosuppression, and then were given a 2012 seasonal influenza vaccination (Agrippal®, Novartis Vaccines and Diagnostics, Siena, Italy) containing the strains H1N1 A/California/07/2009, H3N2 A/Victoria/210/2009, B/Brisbane/60/2008. Four weeks after influenza vaccination, subjects had serum collected for influenza titer measurements. Antibody titers to the 3 influenza vaccine strains as well as to 2 heterologous strains (A/H1N1 strain A/New Jersey/8/76 and A/H3N2 strain A/Victoria/361/11) were measured by standard hemagglutination inhibition assay (Kendal, A P et al. (1982) Concepts and procedures for laboratory-based influenza surveillance. Atlanta: Centers for Disease Control and Prevention B17-B35). Levels of IgG and IgM specific for the A/H1N1/California/07/2009 were measured in serum samples taken before and 4 weeks after influenza vaccination as described previously (Spensieri, F. et al. (2013) Proc. Natl. Acad. Sci. USA 110:14330-14335). Results were expressed as fluorescence intensity.\nThe primary analysis of geometric mean titer ratios was done using a normal Bayesian regression model with non-informative priors. This model was fitted to each antibody titer on the log scale. The primary outcome in each model was the Day 84 measurement. The Day 63 measurement was included in the outcome vector. The model fitted using SAS 9.2 proc mixed with the prior statement. The covariance structure of the matrix was considered as unstructured (option type=UN). A flat prior was used. For the secondary analysis of seroconversion rates, logistic regression was used.\nThe ability of RAD001 to improve immune function in elderly volunteers was evaluated by measuring the serologic response to the 2012 seasonal influenza vaccine. […]"}, "B/Brisbane/60/2008": {"tested_on": "B/Brisbane/60/2008", "experiment": "Hemagglutination inhibition titers and seroconversion", "type": "in vivo, human", "conditions": "for Percent of subjects with seroconversion to influenza 4 weeks after vaccination: B; for GMT ratio, B: GMT at week 4 post vaccination/GMT at baseline", "experimental": "as §1\n(§2) The ability of RAD001 to improve immune function in elderly volunteers was evaluated by measuring the serologic response to the 2012 seasonal influenza vaccine. The hemagglutination inhibition (HI) geometric mean titers (GMT) to each of the 3 influenza vaccine strains at baseline and 4 weeks after influenza vaccination are provided in Table 10. The primary analysis variable was the HI GMT ratio (4 weeks post vaccination/baseline). […] This endpoint was chosen because a 1.2-fold increase in the influenza GMT ratio induced by the MF-59 vaccine adjuvant was associated with a decrease in influenza illness (Iob, A et al. (2005) Epidemiol Infect 133:687-693).\n(§3) Rates of seroconversion 4 weeks after influenza vaccination were also evaluated. Seroconversion was defined as the change from a negative pre-vaccination titer (i.e., HI titer <1:10) to post-vaccination HI titer ≥1:40 or at least 4-fold increase from a non-negative (≥1:10) pre-vaccination HI titer."}, "H3N2 A/Victoria/210/2009": {"tested_on": "H3N2 A/Victoria/210/2009", "experiment": "Hemagglutination inhibition titers and seroconversion", "type": "in vivo, human", "conditions": "for Percent of subjects with seroconversion to influenza 4 weeks after vaccination: H3N2; for GMT ratio, A/H3N2: GMT at week 4 post vaccination/GMT at baseline", "experimental": "as §1, §2, §3"}, "[4]": {"tested_on": "H1N1 A/California/07/2009", "experiment": "Hemagglutination inhibition titers and seroconversion", "type": "in vivo, human", "conditions": "for Percent of subjects with seroconversion to influenza 4 weeks after vaccination: H1N1; for GMT ratio, A/H1N1: GMT at week 4 post vaccination/GMT at baseline", "experimental": "as §1, §2, §3"}, "[5]": {"conditions": "Intention to Treat Population, 0.5 mg, N = 48"}, "[6]": {"conditions": "Intention to Treat Population, 5 mg, N = 49"}, "[7]": {"conditions": "Intention to Treat Population, 20 mg, N = 48"}, "[8]": {"conditions": "Subjects with Baseline Titers <=40, 0.5 mg"}, "[9]": {"conditions": "Subjects with Baseline Titers <=40, 5 mg"}, "[10]": {"conditions": "Subjects with Baseline Titers <=40, 20 mg"}},
  "note": "Marks after values point to notes of the source that are not given here.",
  "data": [
    {"smiles": "CO[C@H]1C[C@@H]2CC[C@@H](C)[C@@](O)(O2)C(=O)C(=O)N2CCCC[C@H]2C(=O)O[C@H]([C@H](C)C[C@@H]2CC[C@@H](OCCO)[C@H](OC)C2)CC(=O)[C@H](C)/C=C(\\C)[C@@H](O)[C@@H](OC)C(=O)[C@H](C)C[C@H](C)/C=C/C=C/C=C/1C", "note": "[RAD001, (1R,9S,12S,15R,16E,18R,19R,21R,23 S,24E,26E,28E,30S,32S,35R)-1,18-dihydroxy-12-{(1R)-2-[(1 S,3R,4R)-4-(2-hydroxyethoxy)-3-methoxycyclohexyl]-1-methylethyl}-19,30-dimethoxy-15,17,21,23,29,35-hexamethyl-11,36-dioxa-4-aza-tricyclo[30.3.1.04,9]hexatriaconta-16,24,26,28-tetraene-2,3,10,14,20-pentaone]", "values": [
      {"measurement": "increase in HI GMT ratios for the heterologous strains", "setting": "[1]", "value": "higher in the RAD001 as compared to placebo cohorts"},
      {"measurement": "seroconversion rates for the heterologous strains", "setting": "[1]", "value": "higher in the RAD001 as compared to placebo cohorts"},
      {"measurement": "average trough level", "setting": "[2]; 0.5 mg daily", "value": 0.9, "unit": "ng/mL"},
      {"measurement": "average trough level", "setting": "[2]; 5 mg weekly", "value": "below detection limits"},
      {"measurement": "average trough level", "setting": "[2]; 20 mg weekly", "value": 0.7, "unit": "ng/mL"},
      {"measurement": "trough level of study regimens relative to approved regimens", "setting": "[2]; in vivo", "value": "3-20 fold lower"},
      {"measurement": "primary endpoint (≥1.2-fold GMT increase relative to placebo in 2 of 3 strains)", "setting": "[3]; 0.5 mg daily or 5 mg weekly", "value": "met the GMT primary endpoint"},
      {"measurement": "primary endpoint (≥1.2-fold GMT increase relative to placebo in 2 of 3 strains)", "setting": "[3]; 20 mg weekly", "value": "but not higher dose (20 mg weekly) cohort met the primary endpoint"},
      {"measurement": "increase in titers in subjects with low baseline influenza titers (≤1:40)", "setting": "[3]; compared with the ITT population", "value": "greater RAD001-associated increase in titers"},
      {"measurement": "RAD001 concentration versus increase in titer", "setting": "[3]; concentration 1 hour post dose after 4 weeks", "value": "inverse exposure/response relationship"},
      {"measurement": "Percent of subjects with seroconversion to influenza 4 weeks after vaccination", "setting": "B/Brisbane/60/2008; [5]", "value": 27, "unit": "%"},
      {"measurement": "Percent of subjects with seroconversion to influenza 4 weeks after vaccination", "setting": "B/Brisbane/60/2008; [6]", "value": 22, "unit": "%"},
      {"measurement": "Percent of subjects with seroconversion to influenza 4 weeks after vaccination", "setting": "B/Brisbane/60/2008; [7]", "value": 19, "unit": "%"},
      {"measurement": "Percent of subjects with seroconversion to influenza 4 weeks after vaccination", "setting": "B/Brisbane/60/2008; [8]", "value": "40* %"},
      {"measurement": "Percent of subjects with seroconversion to influenza 4 weeks after vaccination", "setting": "B/Brisbane/60/2008; [9]", "value": 33, "unit": "%"},
      {"measurement": "Percent of subjects with seroconversion to influenza 4 weeks after vaccination", "setting": "B/Brisbane/60/2008; [10]", "value": 28, "unit": "%"},
      {"measurement": "GMT ratio, B", "setting": "B/Brisbane/60/2008; RAD001 5 mg weekly, N = 49", "value": 2.2},
      {"measurement": "GMT ratio, B", "setting": "B/Brisbane/60/2008; RAD001 20 mg weekly, N = 49", "value": 2.1},
      {"measurement": "Percent of subjects with seroconversion to influenza 4 weeks after vaccination", "setting": "H3N2 A/Victoria/210/2009; [5]", "value": 27, "unit": "%"},
      {"measurement": "Percent of subjects with seroconversion to influenza 4 weeks after vaccination", "setting": "H3N2 A/Victoria/210/2009; [6]", "value": 24, "unit": "%"},
      {"measurement": "Percent of subjects with seroconversion to influenza 4 weeks after vaccination", "setting": "H3N2 A/Victoria/210/2009; [7]", "value": 25, "unit": "%"},
      {"measurement": "Percent of subjects with seroconversion to influenza 4 weeks after vaccination", "setting": "H3N2 A/Victoria/210/2009; [8]", "value": 64, "unit": "%"},
      {"measurement": "Percent of subjects with seroconversion to influenza 4 weeks after vaccination", "setting": "H3N2 A/Victoria/210/2009; [9]", "value": 53, "unit": "%"},
      {"measurement": "Percent of subjects with seroconversion to influenza 4 weeks after vaccination", "setting": "H3N2 A/Victoria/210/2009; [10]", "value": 71, "unit": "%"},
      {"measurement": "GMT ratio, A/H3N2", "setting": "H3N2 A/Victoria/210/2009; RAD001 5 mg weekly, N = 49", "value": 2.0},
      {"measurement": "GMT ratio, A/H3N2", "setting": "H3N2 A/Victoria/210/2009; RAD001 20 mg weekly, N = 49", "value": 2.1},
      {"measurement": "Percent of subjects with seroconversion to influenza 4 weeks after vaccination", "setting": "[4]; [5]", "value": 27, "unit": "%"},
      {"measurement": "Percent of subjects with seroconversion to influenza 4 weeks after vaccination", "setting": "[4]; [6]", "value": 27, "unit": "%"},
      {"measurement": "Percent of subjects with seroconversion to influenza 4 weeks after vaccination", "setting": "[4]; [7]", "value": 17, "unit": "%"},
      {"measurement": "Percent of subjects with seroconversion to influenza 4 weeks after vaccination", "setting": "[4]; [8]", "value": 42, "unit": "%"},
      {"measurement": "Percent of subjects with seroconversion to influenza 4 weeks after vaccination", "setting": "[4]; [9]", "value": 45, "unit": "%"},
      {"measurement": "Percent of subjects with seroconversion to influenza 4 weeks after vaccination", "setting": "[4]; [10]", "value": 36, "unit": "%"},
      {"measurement": "GMT ratio, A/H1N1", "setting": "[4]; RAD001 5 mg weekly, N = 49", "value": 2.5},
      {"measurement": "GMT ratio, A/H1N1", "setting": "[4]; RAD001 20 mg weekly, N = 49", "value": 1.8}
    ]}
  ]
}
